Consider 35 compounds from the supplement of paper PMC11003180.

Common to all, as to experiment: drug sensitivity score (DSS) from 5-dose viability curve (DSS (area-based score, 0 = no response)); higher = more sensitive (stronger viability inhibition); extreme values may be limits of the assay
Assay [1] deals with MDCK wild-type + doxycycline. The conditions noted are these: doxycycline: 10 ng/mL; 72 h. The gist of the method:
(§1)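 Two MDCK lines, parental and doxycycline-inducible, received doxycycline at 10 ng/mL in the medium before being plated at 2000 cells/well onto a pre-spotted 384-well oncology library of 528 drugs at five doses (1-10,000 nM). Incubation lasted 72 h at 37 °C. Viability was read by CellTiter-Glo luminescence, scaled per plate between vehicle and positive controls, and converted to drug sensitivity scores through Breeze curve fitting.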

Assay [2] has as its system MDCK p60AmotL2-inducible + doxycycline (p60AmotL2 expressing). The note with it: doxycycline: 10 ng/mL; 72 h. A digest of the protocol: as §1
For assay [3], the system named is MDCK wild-type - doxycycline. The conditions noted are these: doxycycline: none; 72 h. The gist of the method: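 For 72 h at 37 °C, parental MDCK cells (no doxycycline, 2000 cells/well) were incubated on 384-well plates pre-spotted with 528 oncology drugs at five doses from 1 to 10,000 nM. CellTiter-Glo luminescence served as the viability readout, scaled per plate between vehicle and positive controls. The Breeze pipeline then fitted dose-response curves to yield drug sensitivity scores.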

In the case of `NC1(c2ccc(-c3nc4ccn5c(=O)[nH]nc5c4cc3-c3ccccc3)cc2)CCC1` [MK-2206], the drug sensitivity score in assay [1], in assay [2] and in assay [3] was 0 each time.
Consider `COc1ncc(-c2ccc3nccc(-c4ccnnc4)c3c2)cc1NS(=O)(=O)c1ccc(F)cc1F` [Omipalisib], for which the drug sensitivity score in assay [1] came out at 14.2; in assay [2] it was 20.2; in assay [3], 14.5.
In the case of `CN(C)C(=O)c1cc2cnc(Nc3ccc(N4CCNCC4)cn3)nc2n1C1CCCC1` [Ribociclib], the drug sensitivity score in assay [1] is 0.8; in assay [2] it was 1.6; in assay [3] it was 0.
Taken in the same sequence, the figures for `CC(=O)O[C@@]12CO[C@@H]1C[C@H](O)[C@@]1(C)C(=O)[C@H](O)C3=C(C)[C@@H](OC(=O)[C@H](O)[C@@H](NC(=O)OC(C)(C)C)c4ccccc4)C[C@@](O)([C@@H](OC(=O)c4ccccc4)[C@H]21)C3(C)C` [Docetaxel] were 23.2, 27 and 19.3.
Consider `CC1(C)CCC(c2ccc(Cl)cc2)=C(CN2CCN(c3ccc(C(=O)NS(=O)(=O)c4ccc(N[C@H](CCN5CCOCC5)CSc5ccccc5)c(S(=O)(=O)C(F)(F)F)c4)cc3)CC2)C1` [Navitoclax], for which the drug sensitivity score in assay [1] is 0.9; in assay [2], 0; in assay [3], 0.8.
For `C=CCN(/C=C1/C(=O)O[C@H](COC)[C@@]2(C)C1=C(O)C(=O)C1=C2[C@H](OC(C)=O)C[C@]2(C)C(=O)CC[C@@H]12)CC=C` [Sonolisib], the drug sensitivity score in assay [1], in assay [2] and in assay [3] was 0 throughout.
For the compound `O=C(Nc1ccc2[nH]nc(-c3ccncc3)c2c1)[C@@H]1CCN(CC(=O)N2CCN(c3ccc(-c4ncccn4)cc3)CC2)C1`, the values for the drug sensitivity score in assay [1], in assay [2] and in assay [3] were 6.7, 10.7 and 3.5, respectively.
For `Cc1cnc(Nc2ccc(OCCN3CCCC3)cc2)nc1Nc1cccc(S(=O)(=O)NC(C)(C)C)c1` [Fedratinib] the same measures were 5.7, 6.9 and 6.
For `O=C(O)C1(C(=O)O)CCC1.[NH2-].[NH2-].[Pt+2]` [Carboplatin] the same measures were 4.4, 5 and 3.6.
Taken in the same sequence, the figures for `Nc1nc(Nc2ccc3c(c2)CC[C@@H](N2CCCC2)CC3)nn1-c1cc2c(nn1)-c1ccccc1CCC2` [BGB324] were 5, 5.8 and 5.1.
In the case of `COc1cc(Nc2ncc(F)c(Nc3ccc4c(n3)NC(=O)C(C)(C)O4)n2)cc(OC)c1OC` [Tamatinib], the drug sensitivity score in assay [1] was determined as 0; in assay [2], 1.6; in assay [3], 0.
On to `FC(F)(F)c1ccc(/C=C/c2nc(COc3ccc(CCCCn4ccnn4)cc3)co2)cc1` [Mubritinib], for which the drug sensitivity score in assay [1], in assay [2] and in assay [3] was 0 in each case.
In the case of `CNC(=O)c1ccccc1Nc1cc(Nc2ccc(N3CCOCC3)cc2OC)ncc1C(F)(F)F` [VS-4718], the drug sensitivity score in assay [1] is 4.7; in assay [2], 5.6; in assay [3], 3.6.
For `Cn1c(=O)n(-c2ccc(C(C)(C)C#N)cc2)c2c3cc(-c4cnc5ccccc5c4)ccc3ncc21` [Dactolisib] the same measures were 10.9, 17.7 and 9.2.
With `CNc1nc(-c2ccc3c(N)n[nH]c3c2)cc(N2C[C@@H](C(=O)NC3CCCCC3)CC[C@H]2C)n1`, the drug sensitivity score in assay [1], in assay [2] and in assay [3] was 0 throughout.
As for `CCC1=C[C@@H]2CN(C1)Cc1c([nH]c3ccccc13)[C@@](C(=O)OC)(c1cc3c(cc1OC)N(C)[C@H]1[C@@](O)(C(=O)OC)[C@H](OC(C)=O)[C@]4(CC)C=CCN5CC[C@]31[C@@H]54)C2` [Vinorelbine], the drug sensitivity score is 30.2 in assay [1], 34.2 in assay [2] and 29.8 in assay [3].
As for `CCS(=O)(=O)N1CC(CC#N)(n2cc(-c3ncnc4[nH]ccc34)cn2)C1` [Baricitinib], the drug sensitivity score in assay [1], in assay [2] and in assay [3] was 0 throughout.
Turning to `CC[C@H](NC(=O)[C@H](C)NC)C(=O)N1C[C@@H](O)C[C@H]1Cc1c(-c2[nH]c3cc(F)ccc3c2C[C@@H]2C[C@H](O)CN2C(=O)[C@H](CC)NC(=O)[C@H](C)NC)[nH]c2cc(F)ccc12` [Birinapant], the drug sensitivity score in assay [1], in assay [2] and in assay [3] was 0 in each case.
In the case of `O=C(Nc1cccnc1)N1CCC(Cc2cccc(Oc3ccc(C(F)(F)F)cn3)c2)CC1` [PF-3845], the figures for the drug sensitivity score in assay [1], in assay [2] and in assay [3] were 0, 0.8 and 0, respectively.
Take `CCc1c(C(=O)C(N)=O)c2c(OCC(=O)O)cccc2n1Cc1ccccc1` [Varespladib]: the drug sensitivity score in assay [1], in assay [2] and in assay [3] was 0 in each case.
For the compound `Cn1cc(-c2cnn3c(N)c(Br)c([C@@H]4CCCNC4)nc23)cn1` [MK-8776], the drug sensitivity score in assay [1], in assay [2] and in assay [3] was 0 throughout.
As to `COc1cc2nccc(Oc3ccc(NC(=O)C4(C(=O)Nc5ccc(F)cc5)CC4)cc3)c2cc1OC` [Cabozantinib], the drug sensitivity score in assay [1], in assay [2] and in assay [3] was 0 each time.
For `COCCOc1cnc2ccn([C@H](C)c3nnc4c(F)cc(-c5cnn(C)c5)cn34)c(=O)c2c1` [AMG-337], the drug sensitivity score in assay [1], in assay [2] and in assay [3] was 0 each time.
With `CN(Cc1cnc2nc(N)nc(N)c2n1)c1ccc(C(=O)N[C@@H](CCC(=O)O)C(=O)O)cc1` [Methotrexate], the drug sensitivity score is 25.8 in assay [1], 22.5 in assay [2] and 27 in assay [3].
Taken in the same sequence, the figures for `CN(C)C/C=C/C(=O)Nc1cc2c(Nc3ccc(F)c(Cl)c3)ncnc2cc1O[C@H]1CCOC1` [Afatinib] were 3.5, 18.3 and 4.2.
As for `C[C@H]1CNCCCN1S(=O)(=O)c1cccc2cncc(F)c12` [Ripasudil], the drug sensitivity score in assay [1], in assay [2] and in assay [3] was 0 throughout.
As to `CC(=O)c1cnc2ccc(-c3cc(Cl)c(O)c(Cl)c3)nc2c1N[C@H]1CC[C@H](CN(C)C)CC1` [OTS167], the drug sensitivity score in assay [1] turned out to be 19.4; in assay [2] it was 18.8; in assay [3] it was 17.2.
Taken in the same sequence, the figures for `CN1C(=O)N[C@H](Cc2c[nH]c3c(Cl)cccc23)C1=O` [Necrostatin 2] were 0, 0 and 0.
For `Cc1cnc(NC(=O)Nc2cc(Br)c(C)cc2OC[C@@H]2CNCCO2)cn1` [Rabusertib] the same measures were 0, 0 and 0.
For `C[C@@H](Nc1cc(F)cc(F)c1)c1cc(C(=O)N(C)C)cc2c(=O)cc(N3CCOCC3)oc12` [AZD-8186] the same measures were 0, 1.4 and 0.
`O=C(Nc1cccc(Nc2ncc(Br)c(NCCc3cnc[nH]3)n2)c1)N1CCCC1` [BX-912]: the values for the drug sensitivity score in assay [1], in assay [2] and in assay [3] were 0.8, 4.1 and 0.1, respectively.
For `CCOC(=O)C1=CCCC[C@H]1S(=O)(=O)Nc1ccc(F)cc1Cl` [Resatorvid], the drug sensitivity score in assay [1], in assay [2] and in assay [3] was 0 each time.
Turning to `CC(=O)O[C@H]1C(=O)[C@@]2(C)[C@H]([C@H](OC(=O)c3ccccc3)[C@]3(O)C[C@H](OC(=O)[C@H](O)[C@@H](NC(=O)c4ccccc4)c4ccccc4)C(C)=C1C3(C)C)[C@]1(OC(C)=O)CO[C@@H]1C[C@@H]2O` [Paclitaxel], the drug sensitivity score amounted to 19.4 in assay [1], 21.8 in assay [2] and 15.8 in assay [3].
For `COc1cc2c(cc1OCCCN1CCCC1)N=C(N)C21CCC1` [A-366] the same measures were 0, 0 and 0.
Taken in the same sequence, the figures for `CCN(CC)CCNC(=O)c1c(C)[nH]c(/C=C2\C(=O)Nc3ccc(-c4csc(-c5ccccc5)n4)cc32)c1C` [Amcasertib] were 0, 0 and 0.
